These results are taken from patent US20150351390A1, “COMPOSITIONS AND METHODS FOR AUXIN-ANALOG CONJUGATION” (PIONEER HI-BRED INTERNATIONAL, INC., priority 2012, published 2015).

Assay [1] deals with Arabidopsis ecotype Col-0 plant. As to the kind of experiment: Arabidopsis response to spot infiltrated auxins and conjugates. It counts as in vivo, Arabidopsis thaliana. Conditions: 50, 150, and 500 μM; result in words. The method, then:
The effect of auxin conjugates was assessed using Arabidoposis (Arabidopsis thialiana) ecotype Col-0 plant. Prior to studies utilizing the auxin conjugates, levels of analytical grade (98%+pure) IAA, 2,4-D and dicamba in solution were applied at various concentrations directly to developmentally similar leaves of 20-23 day old Arabidopsis seedlings by needleless syringe spot infiltration methodology, in order to determine range of auxinic response and severity. Phenotypes were documented relative to control at 1 day post-spot infiltration and subsequently every other day, up to nine days post treatment. Three concentrations were chosen based on reproducibility, and conjugated forms were then studied with 4 or more replicate treatments for each, along with appropriate negative controls (H2O and 10% EtOH).
Examples 9 and 10 utilized a spot infiltration method for the delivery of an herbicide directly to leaves of a plant. The method generally allows for the directed delivery of a variety of agents to a localized area of a plant, e.g. localized region of leaves, for screening or assessment purposes, e.g. to quickly assess the response of a plant to the agent. As used in the foregoing examples, the spot infiltration method was used to introduce specific herbicides or specific conjugates of the herbicides to seedling plant leaves. Following introduction of the herbicide or the appropriate conjugate, plants were observed daily for nine days for characteristics of epinasty, trifoliate leaf curly, chlorosis, and new growth recovery.
Briefly, a solution of the desired agent is prepared of the desired agent, e.g. as described above in Example 10, solutions (5% EtOH) of 1, 2.5 and 5 mM IAA. The solution is then drawn into a 1 mL BD™ slip-tip syringe, bulk, non-sterile syringe (e.g. Becton, Dickinson and Company, Product No. 301025) with 100 μL markings. The desired volume is then applied to the leaf, e.g. as described in Examples 9 and 10, with the tip of the syring against the leaf and positive pressure applied to the syringe plunger. Sufficient pressure is applied in order to infuse the area beneath the syringe opening, but not so much pressure as to cause a visible-to-the-eye puncture or hole to form in the leaf. Some run-off of solution around the syringe opening is expected. In the foregoing examples, two spots were applied to each of two leaves per seedling for soybean plants. […] In soybean, both spots per leaf were at the distal portion of the leaf about 1-2 cm apart. When the method was applied to Arabidopsis, two developmentally intermediate aged leaves were chosen per plant, and one spot infiltration was carried out per leaf.
Generally, for Arabidopsis, the two leaves were chosen from opposite sides of rosette. In general, the spot infiltration method is carried out on younger plants in order to minimize experimental footprint and to maintain developmental uniformity. However, the method is not limited to use on young plants and can be easily applied to older plants as determined by the goals of a particular experiment.

The test system of assay [2] is Transgenic Arabidopsis lines overexpressing SEQ ID NO:3. As to the kind of experiment: Root growth inhibition by 2,4-D, transgenic Arabidopsis. It counts as in vivo, Arabidopsis thaliana. As for the experimental part: Arabidopsis (Arabidopsis thaliana) expressing GH3 genes were produced using floral dip methods of Agrobacterium mediated transformation (Clough S J and Bent A F, 1998, Plant J. 16:735-43; Chung M. H., Chen M. K., Pan S. M. 2000. Transgenic Res. 9: 471-476; Weigel D. and Glazebrook J. 2006. In Planta Transformation of Arabidopsis. Cold Spring Harb. Protoc. 4668 3). Briefly, Arabidopsis (Col-0) plants were grown in soil in pots. The first inflorescence shoots were removed as soon as they emerged. Plants were ready for transformation when the secondary inflorescence shoots were about 3 inches tall. Agrobacterium carrying a suitable binary vector were cultured in 5 mL LB medium at 28° C. with shaking at 200 rpm for two days. 1 mL of the culture was then inoculated into 200 ml fresh LB media and incubated again with vigorous agitation for an additional 20-24 hours at 28° C. The Agrobacterium culture was then subjected to centrifugation at 6000 rpm in a GSA rotor (or equivalent) for 10 minutes. The pellet was resuspended in 20-100 mL of spraying medium containing 5% (wt/v) sucrose and 0.01-0.2% (v/v) Silwet L-77. The Agrobacterium suspension was transferred into a hand-held sprayer for spraying onto inflorescences of the transformation-ready Arabidopsis plants. The sprayed plants were covered with a humidity dome for 24 hours before the cover was removed for growth under normal growing conditions. Seeds were harvested. Screening of transformants was performed under sterile conditions. Surface sterilized seeds were placed onto MS-Agar plates (Phyto Technology labs Prod. No. M519) containing appropriate selective antibiotics (kanamycin 50 mg/L, hygromycin 20 mg/L, or bialaphos 10 mg/L). Anti-Agrobacteirum antibiotic timentin was also included in the media. Plates were cultured at 21° C. at 16 hr light for 7-14 days. Transgenic events harboring GH3 genes were germinated and transferred to soil pots in the greenhouse for evaluation of herbicide tolerance.
A selectable marker gene used to facilitate Arabidopsis transformation was a chimeric gene composed of the 35S promoter from Cauliflower Mosaic Virus (Odell et al. 1985. Nature 313:810-812), the bar gene from Streptomyces hygroscopicus (Thompson et al., 1987. EMBO J. 6:2519-2523), and the 3′UBQ14 terminator region from Arabidopsis (Callis et al., 1995. Genetics 139 (2), 921-939). Another visual selectable marker gene used to facilitate Arabidopsis transformation was a chimeric gene composed of the UBQ promoter from soybean (Xing et al., 2010. Plant Biotechnology Journal 8:772-782), the YFP coding sequence, and the 3′ region of the nopaline synthase gene from the T-DNA of the Ti plasmid of Agrobacterium tumefaciens. Bialophos was used as the selection agent during the transformation process. GH3 genes were expressed with a constitutive promoter, for example, the Arabidopsis UBQ10 promoter (Norris et al., 1993. Plant Mol Biol 21:895-906) or UBQ3 promoter (Norris et al., 1993. Plant Mol Biol 21:895-906) for strong or moderate expression, a GH3 coding sequence, and the 3′ terminator region of the French bean phaseolin gene (Sun et al., 1981. Nature 289:37-41; Slightom et al., 1983. Proc. Natl. Acad. Sci. U.S.A. 80 (7), 1897-1901)
Seeds of Arabidopsis ecotype Columbia (Col-0) and GH3 transgenic events were surface sterilized with 70% (v/v) ethanol for 5 minutes and 10% (v/v) bleach for 15 minutes. After being washed three times with distilled water, the seeds were incubated at 4° C. for 4 days. The seeds were then germinated on 1× Murashige and Skoog (MS) medium with a pH of 5.7, 3% (w/v) sucrose, and 0.8% (w/v) agar. After incubation for 3.5 days, the seedlings were transferred to the basal medium containing B5 vitamin, 3% (w/v) sucrose, […] MES (pH 5.7), 1.2% (w/v) agar, and filter sterilized auxin herbicides 2,4-D or dicamba was added to the media at 60° C. […] The concentrations of dicmaba were 0 μM, 1.0 μM, 5.0 μM, 7.0 μM, and 10 μM. […]

`O=C(O)COc1ccc(Cl)cc1Cl` [2,4-D, 2,4-dichlorophenoxyacetic acid]: the “Phenotype, Arabidopsis” value in assay [1] was “increased auxinic response ranging from mild to more extreme epinasty”. Also, the “Percentage of the average root length compared with 0 nM 2,4-D treatment” value in assay [2] (Line #1, 10 nM 2,4-D) is reported as 80%; in assay [2] (Line #1, 100 nM 2,4-D) it was 43%; in assay [2] (Line #2, 10 nM 2,4-D) it was 83%; in assay [2] (Line #2, 100 nM 2,4-D), 36%; in assay [2] (Line #3, 10 nM 2,4-D) it was 88%; in assay [2] (Line #3, 100 nM 2,4-D), 63%. The “Percentage of the average root length compared with 0 nM 2,4-D treatment” value in assay [2] (Line #4, 10 nM 2,4-D) is 101%; in assay [2] (Line #4, 100 nM 2,4-D) it was 60%; in assay [2] (Line #5, 10 nM 2,4-D) it was 76%; in assay [2] (Line #5, 100 nM 2,4-D) it was 50%. Further, the “Inhibition of root growth by 2,4-D” value in assay [2] (transgenic line #4, 10 nM 2,4-D, result in words) is given as “completely alleviated”.
